How the values were obtained:
Type in all cases: cell-based
[1] = tested on: TAK1, SMAD2/3, TGFβRII, AKT, phospho-SMAD2; experiment: Western analysis of other TGFβ signaling mediators
Protocol: (§1) Proteins were resolved on an 8%, 12%, or 15% SDS-PAGE gel (as appropriate) and electrophoretically transferred to polyvinyldifluoride (PVDF) membranes. After blocking with 5% (w/v) milk in TBST (Tris-Buffered Saline containing 0.1% Tween-20) for one hour at room temperature, membranes were incubated with primary antibodies (at appropriate dilution) overnight at 4° C., followed by extensive washing and incubation for 1 hour with the appropriate horseradish peroxidase-conjugated secondary antibodies (BioRad, Hercules, Calif.). Blots were washed extensively. A rabbit polyclonal EVI1 antibody was obtained (1:3000 dilution, St. Jude's Children's Hospital, Memphis, Tenn.). SnoN rabbit polyclonal (1:1000 dilution), PML, and p21 SMURF2 rabbit polyclonal (1:500 dilution), MRP1 mouse monoclonal (1:500 dilution) and GAPDH mouse monoclonal (1:250 dilution) antibodies were obtained from Santa Cruz Biotechnology (Santa Cruz, Calif.). TGFβRII rabbit polyclonal (1:1000 dilution) antibody was obtained from Strategic Diagnostics (Newark, Del.). Smad2/3 rabbit polyclonal (1:1000 dilution), Beclin-1 rabbit polyclonal (1:1000 dilution), AKT rabbit polyclonal (1:1000 dilution), TAK1 rabbit polyclonal (1:1000 dilution), PARP rabbit polyclonal (1:1000 dilution), Beclin-1 rabbit polyclonal (1:1000 dilution), caspase-3 rabbit polyclonal (1:1000) which detects the pro-caspase form, and ATG5 rabbit polyclonal (1:1000 dilution), LC3-II rabbit polyclonal (1:1000 dilution) antibodies were obtained from Cell Signaling Technology (Danvers, Mass.). The HSP27 mouse monoclonal (1:1000 dilution) antibody was obtained from Stressgen (Ann Arbor, Mich.). Blots were developed using chemiluminescence substrates (Amersham Piscataway, N.J. or BioRad, Hercules, Calif.). Monoclonal PAI-1 antibody was obtained from BD Pharmingen. PSMAD2, total SMAD2/3, p-ERK, p-AKT, and total AKT antibodies were obtained from Cell Signaling Technology. A monoclonal antibody against Arkadia was obtained from Abnova (Taiwan).
(§2) Densitometric analysis was performed using the HP Scanjet 5590 and the Image J program (Image Processing and Analysis in Java, NIH Image Software). Bands were selected and the intensity values were normalized to those for GAPDH. The values are presented as fold-changes relative to control siRNA treated cells.
(§3) The clinical inhibitors As2O3, geldanamycin (17-AAG) (dissolved in dimethylsulfoxide [DMSO]), and MG132 (dissolved in DMSO) were obtained from Sigma-Aldrich (St. Louis, Mo.), Fisher Scientific (Pittsburgh, Pa.), and Alexis Biochemicals (Farmingdale, N.Y.), respectively. N-acetyl-L-cysteine (NAC; dissolved in media) and Bortezomib (PS-341; dissolved in DMSO) were obtained from Fisher Scientific. 3-Methyladenine (3-MA; dissolved in media) was obtained from MP Biomedicals (Solon, Ohio). Tiron (4,5-Dihydroxy-1,3-benzenedisulfonic acid, dissolved in media) was obtained from Fisher Scientific. zVAD-fmk (dissolved in DMSO) and bafilomycin A (dissolved in DMSO) was obtained from Axxora LLC (San Diego, Calif.). Bovine catalase was obtained from Sigma-Aldrich. HBED and Mn TBAP was obtained from ENZO Life Sciences (Farmingdale, N.Y.). Ovarian cells were plated in 6-well plates at 250,000 cells per well and grown in complete medium. The following day, the cells were treated with 5 μM MG132, As2O3 (between 2-50 μM), 17-AAG (between 2-50 μM), NAC (Fisher Scientific, between 25 μM to 1 mM), Tiron (between 25 μM to 1 mM), 3-MA (0.1 mM to 10 mM), or zVAD-fmk (25 μM to 100 μM). For control cells, DMSO (a final concentration of <0.5%) was added to compare appropriately to drugs dissolved in DMSO. After the appropriate incubation time (6 or 18 hours), cell lysates were collected, protein quantified, and SDS-PAGE/western analysis was performed. In addition, for selected studies, RNA was isolated, quantified, and used for qPCR analysis.

cleaved PARP = experiment: Western analysis of PARP cleavage (early apoptosis marker)
Protocol: as §1, §2, §3

[2] = tested on: LC3-I/LC3-II, autophagosomes; experiment: Autophagy: LC3 western, EGFP-LC3 fluorescence, TEM of autophagosomes
Protocol: as §1
HEY cells were seeded onto glass coverslips and allowed to adhere following overnight incubation. The cells were then transiently transfected with EGFP-LC3 (Addgene, Cambridge, Mass.) and allowed to recover for 24 hours. The cells were treated at the appropriate concentrations of As2O3 in the absence or presence of 3-MA (5 and 10 mM), for 18 hours. The cells were then fixed in 4% paraformaldehyde in PBS for 30 minutes at room temperature, washed twice in PBS, and blocked for 1 hour at room temperature in PBS containing 5% goat serum and 0.1% Triton X-100. The cells were counterstained with Hoescht nuclear stain, washed 3 times for 5 minutes in PBS, anti-Fade containing DAPI nuclear stain was then applied, and coverslips mounted onto glass slides and viewed under a Zeiss inverted fluorescence microscope (Moffitt Cancer Center Microscopy Core).
Autophagy induction was analyzed using electron microscopy. […] Cells were then fixed in 2.5% glutaraldehyde in 0.1M phosphate buffer overnight at 4° C. Following rinsing in buffer, cells were scraped from the culture flasks, washed, and then post-fixed in 1% osmium tetroxide in buffer. After dehydration in a graded series of acetone, the cells were embedded in Embed 812 epoxy resin. Thin sections (70 nm) were cut on an Ultramicrotome. The sections on the grids were stained with uranyl acetate and lead citrate. The sections were examined on a Transmission Electron Microscope (Morgagni 268D).

EVI1 and TGFβRII RNA = experiment: qPCR of EVI1 and TGFβRII RNA levels; details: 5 μM As2O3, 18 hours
Protocol: RNA was isolated using the RNeasy Mini Kit (Qiagen, Valencia, Calif.) from normal, benign, stage I-IV ovarian patient samples and quantitative PCR was performed. A one-step RT-PCR Taqman master mix from Applied Biosystems (Foster City, Calif.) and primers for genes in the 3q26.2 amplicon were obtained using Genebank sequences as well as from Assays on Demand (Hs00180524_m1 (SnoN/SkiL)), with the following primers and probe sets.
EVI1 Exon III—(detects both EVI1 and MDS1/EVI1):
Primers/probe sequences for SnoN (Hs00180524_m1), TGFβRII (Hs00234253_m1), and LC3 (Hs00261291_m1) were obtained from Applied Biosystems (Assays by Design).
mRNA levels were determined using the One-Step-Plus Applied Biosystems Detection System or ABI PRISM 7700 Sequence Detection System using β-actin as a reference. […] 95° C. for 15 s followed by 60° C. for 1 min Using the correlative method, RNA-fold change in expression was calculated as Ct of gene—Ct of β-actin to generate ΔCt from which ΔCt of the normal sample was subtracted. […]
The clinical inhibitors As2O3, geldanamycin (17-AAG) (dissolved in dimethylsulfoxide [DMSO]), and MG132 (dissolved in DMSO) were obtained from Sigma-Aldrich (St. Louis, Mo.), Fisher Scientific (Pittsburgh, Pa.), and Alexis Biochemicals (Farmingdale, N.Y.), respectively. […] In addition, for selected studies, RNA was isolated, quantified, and used for qPCR analysis.

Arsenic trioxide [As2O3]
TAK1, SMAD2/3, TGFβRII and AKT protein ([1]; HEY and OVCA429, 18 hours, increasing doses): markedly reduced
EVI1, TAK1, SMAD2/3, TGFβRII expression levels ([1]; HEY, 18 hours As2O3): Dramatic decreases
dose at which PARP fragmentation dramatically increased (cleaved PARP; HEY and SKOV3): 50 µM
dose at which PARP fragmentation dramatically increased (cleaved PARP; T80): 25 µM
levels of LC3-I and LC3-II ([2]; As2O3, 18 hours, correlated with SnoN expression): increased
EGFP-LC3 staining pattern ([2]; HEY, As2O3 between 5 μM to 25 μM, data not shown): punctuate staining pattern around the nucleus
autophagosomes by TEM ([2]; HEY, data not shown): numerous double membrane autophagosomes
decrease in EVI1 and TGFβRII RNA levels (EVI1 and TGFβRII RNA): < 20%

Source: US8211646B1, “Methods of treating ovarian cancer by modulating SnoN” (University of South Florida, priority 2008, dated 2012)
